Results on one molecule are retold here after US20100035762A1, “Prognostic Methods in Colorectal Cancer” (Oryzon Genomics, S.A., priority 2006, published 2010).

Assay [1] relates to EphB4 gene expression in SW620 cells. Kind of assay: Treatment of colorectal cancer cell line SW620, EphB4 gene expression by RT-PCR. Format: cell-based. The following applies: 72 h. Here is the method:
(§1) Top panel: changes in gene expression a measured by RT-PCR. Lower panel: changes in methylation a measure by PCR on bisulfite treated DNA with methylation specific primers.
(§2) Cultures of the colorectal cancer cell line SW620, characterized by a low expression level and methylation the EphB4 promoter; were treated during 72 h with different concentrations of 5aza- cytidin.

For the next assay, the system named is EphB4 promoter. Kind of assay: Treatment of SW620, EphB4 promoter methylation by PCR on bisulfite treated DNA with methylation specific primers. Format: cell-based. The settings on record: SW620 cells. Here is the method:
as §1, §2

On to `Nc1ncn([C@@H]2O[C@H](CO)[C@@H](O)[C@H]2O)c(=O)n1` [5-aza-cytidine], for which the “most effective dose for increase of EphB4 gene expression” value in assay [1] was 10 µM. Further, in assay [1] (different concentrations), the “level of EphB4 gene expression” value is “increase”. In the assay with EphB4 promoter, the “methylation of the EphB4 promoter” value was “reduces the methylation”.
